Measurements: the NIST ThermoML archive (doi:10.1016/j.jct.2017.11.007)
± gives the expanded uncertainty stated by the source.

Assay: mn = molality of the nth substance listed, in mol/kg
Details: 74.66 kPa, Liquid; for speed of sound: Frequency=3 MHz, Single path-length method; for mass density: Vibrating tube method

Cc1ccnc([N-]S(=O)(=O)c2ccc(N)cc2)n1.[Na+] + O
speed of sound (278.15 K, m1 = 0.005): 1428.1 ± 1.2 m/s
speed of sound (278.15 K, m1 = 0.008): 1428.7 ± 1.2 m/s
speed of sound (278.15 K, m1 = 0.01): 1429.2 ± 1.2 m/s
speed of sound (278.15 K, m1 = 0.01486): 1430.2 ± 1.2 m/s
speed of sound (278.15 K, m1 = 0.02002): 1431 ± 1.2 m/s
speed of sound (278.15 K, m1 = 0.025): 1432.2 ± 1.2 m/s
speed of sound (278.15 K, m1 = 0.03001): 1433.4 ± 1.2 m/s
speed of sound (278.15 K, m1 = 0.035): 1434.2 ± 1.2 m/s
speed of sound (278.15 K, m1 = 0.03931): 1435.5 ± 1.2 m/s
speed of sound (278.15 K, m1 = 0.045): 1436.4 ± 1.2 m/s
speed of sound (278.15 K, m1 = 0.05): 1437.5 ± 1.2 m/s
speed of sound (278.15 K, m1 = 0.05502): 1438.5 ± 1.2 m/s
speed of sound (278.15 K, m1 = 0.05998): 1439.4 ± 1.2 m/s
mass density (278.15 K, m1 = 0.005): 1000.56 ± 0.11 kg/m3
mass density (278.15 K, m1 = 0.008): 1000.91 ± 0.11 kg/m3
mass density (278.15 K, m1 = 0.01): 1001.15 ± 0.11 kg/m3
mass density (278.15 K, m1 = 0.01486): 1001.72 ± 0.11 kg/m3
mass density (278.15 K, m1 = 0.02002): 1002.33 ± 0.11 kg/m3
mass density (278.15 K, m1 = 0.025): 1002.91 ± 0.11 kg/m3
mass density (278.15 K, m1 = 0.03001): 1003.5 ± 0.11 kg/m3
mass density (278.15 K, m1 = 0.035): 1004.08 ± 0.11 kg/m3
mass density (278.15 K, m1 = 0.03931): 1004.59 ± 0.11 kg/m3
mass density (278.15 K, m1 = 0.045): 1005.25 ± 0.11 kg/m3
mass density (278.15 K, m1 = 0.05): 1005.83 ± 0.11 kg/m3
mass density (278.15 K, m1 = 0.05502): 1006.42 ± 0.11 kg/m3
mass density (278.15 K, m1 = 0.05998): 1007 ± 0.11 kg/m3
speed of sound (283.15 K, m1 = 0.005): 1448.9 ± 1.2 m/s
speed of sound (283.15 K, m1 = 0.008): 1449.4 ± 1.2 m/s
speed of sound (283.15 K, m1 = 0.01): 1449.8 ± 1.2 m/s
speed of sound (283.15 K, m1 = 0.01486): 1450.8 ± 1.2 m/s
speed of sound (283.15 K, m1 = 0.02002): 1451.6 ± 1.2 m/s
speed of sound (283.15 K, m1 = 0.025): 1452.7 ± 1.2 m/s
speed of sound (283.15 K, m1 = 0.03001): 1453.7 ± 1.2 m/s
speed of sound (283.15 K, m1 = 0.035): 1454.6 ± 1.2 m/s
speed of sound (283.15 K, m1 = 0.04002): 1455.6 ± 1.2 m/s
speed of sound (283.15 K, m1 = 0.045): 1456.7 ± 1.2 m/s
speed of sound (283.15 K, m1 = 0.04968): 1457.4 ± 1.2 m/s
speed of sound (283.15 K, m1 = 0.05502): 1458.5 ± 1.2 m/s
speed of sound (283.15 K, m1 = 0.05998): 1459.4 ± 1.2 m/s
mass density (283.15 K, m1 = 0.005): 1000.28 ± 0.11 kg/m3
mass density (283.15 K, m1 = 0.008): 1000.63 ± 0.11 kg/m3
mass density (283.15 K, m1 = 0.01): 1000.87 ± 0.11 kg/m3
mass density (283.15 K, m1 = 0.01486): 1001.42 ± 0.11 kg/m3
mass density (283.15 K, m1 = 0.02002): 1002.02 ± 0.11 kg/m3
mass density (283.15 K, m1 = 0.025): 1002.6 ± 0.11 kg/m3
mass density (283.15 K, m1 = 0.03001): 1003.18 ± 0.11 kg/m3
mass density (283.15 K, m1 = 0.035): 1003.75 ± 0.11 kg/m3
mass density (283.15 K, m1 = 0.04002): 1004.33 ± 0.11 kg/m3
mass density (283.15 K, m1 = 0.045): 1004.9 ± 0.11 kg/m3
mass density (283.15 K, m1 = 0.04968): 1005.43 ± 0.11 kg/m3
mass density (283.15 K, m1 = 0.05502): 1006.05 ± 0.11 kg/m3
mass density (283.15 K, m1 = 0.05998): 1006.62 ± 0.11 kg/m3
speed of sound (288.15 K, m1 = 0.005): 1467.5 ± 1.2 m/s
speed of sound (288.15 K, m1 = 0.008): 1467.8 ± 1.2 m/s
speed of sound (288.15 K, m1 = 0.01): 1468.2 ± 1.2 m/s
speed of sound (288.15 K, m1 = 0.01486): 1469.3 ± 1.2 m/s
speed of sound (288.15 K, m1 = 0.02002): 1469.9 ± 1.2 m/s
speed of sound (288.15 K, m1 = 0.025): 1470.9 ± 1.2 m/s
speed of sound (288.15 K, m1 = 0.03001): 1471.8 ± 1.2 m/s
speed of sound (288.15 K, m1 = 0.035): 1472.7 ± 1.2 m/s
speed of sound (288.15 K, m1 = 0.04002): 1473.7 ± 1.2 m/s
speed of sound (288.15 K, m1 = 0.04499): 1474.6 ± 1.2 m/s
speed of sound (288.15 K, m1 = 0.05): 1475.4 ± 1.2 m/s
speed of sound (288.15 K, m1 = 0.05501): 1476.5 ± 1.2 m/s
speed of sound (288.15 K, m1 = 0.05998): 1477.2 ± 1.2 m/s
mass density (288.15 K, m1 = 0.005): 999.679 ± 0.11 kg/m3
mass density (288.15 K, m1 = 0.008): 1000.02 ± 0.11 kg/m3
mass density (288.15 K, m1 = 0.01): 1000.25 ± 0.11 kg/m3
mass density (288.15 K, m1 = 0.01486): 1000.8 ± 0.11 kg/m3
mass density (288.15 K, m1 = 0.02002): 1001.39 ± 0.11 kg/m3
mass density (288.15 K, m1 = 0.025): 1001.96 ± 0.11 kg/m3
mass density (288.15 K, m1 = 0.03001): 1002.53 ± 0.11 kg/m3
mass density (288.15 K, m1 = 0.035): 1003.09 ± 0.11 kg/m3
mass density (288.15 K, m1 = 0.04002): 1003.66 ± 0.11 kg/m3
mass density (288.15 K, m1 = 0.04499): 1004.23 ± 0.11 kg/m3
mass density (288.15 K, m1 = 0.05): 1004.8 ± 0.11 kg/m3
mass density (288.15 K, m1 = 0.05501): 1005.37 ± 0.11 kg/m3
mass density (288.15 K, m1 = 0.05998): 1005.94 ± 0.11 kg/m3
speed of sound (293.15 K, m1 = 0.005): 1483.7 ± 1.2 m/s
speed of sound (293.15 K, m1 = 0.008): 1484 ± 1.2 m/s
speed of sound (293.15 K, m1 = 0.01): 1484.4 ± 1.2 m/s
speed of sound (293.15 K, m1 = 0.01486): 1485.3 ± 1.2 m/s
speed of sound (293.15 K, m1 = 0.02002): 1486.1 ± 1.2 m/s
speed of sound (293.15 K, m1 = 0.025): 1487 ± 1.2 m/s
speed of sound (293.15 K, m1 = 0.03001): 1487.8 ± 1.2 m/s
speed of sound (293.15 K, m1 = 0.035): 1488.6 ± 1.2 m/s
speed of sound (293.15 K, m1 = 0.04002): 1489.5 ± 1.2 m/s
speed of sound (293.15 K, m1 = 0.04499): 1490.3 ± 1.2 m/s
speed of sound (293.15 K, m1 = 0.05): 1491.2 ± 1.2 m/s
speed of sound (293.15 K, m1 = 0.05501): 1492 ± 1.2 m/s
speed of sound (293.15 K, m1 = 0.05998): 1492.8 ± 1.2 m/s
